In paper PMC4766710 (BMC Cancer, 2016):
Like-named read-outs stand apart in the source and are kept apart here.

Tests used:
[1] = in vivo, 75 mg
[2] = test system: advanced biliary tract cancer; assay: ABC-04 phase Ib trial: objective response (RECIST v1.1), PFS, deaths; type: in vivo, patients; conditions: 75 mg bd + CisGem
Procedure: Patients were assessed prior to starting treatment and at regular intervals throughout treatment. […] All AEs occurring between the date of signing consent and 30 days after the last dose of any trial treatment were recorded. AEs were graded according to CTCAE v 4.03. Blood biochemistry and a full blood count with differential were carried out at the same time points as the physical examinations. […] In addition, prior to registration, an electrocardiogram and echocardiogram, and an ophthalmological examination were required. Disease status was assessed by computed tomography (CT) scan, with or without a liver magnetic resonance (MR) scan, prior to registration, after cycles 4 and 8 and then subsequently every 12 weeks until disease progression. Patients with measurable disease at baseline were assessed for objective response according to RECIST v1.1 [10]. For patients with non-measurable disease, objective response was not assessed and progressive disease was documented by the appearance of new lesions or by symptomatic deterioration.
Tumour responses were assessed according to RECIST version 1.1. The best response across all time points has been reported. For PFS and OS, the time to progression or death was measured from the date of registration. PFS and OS were estimated for the population by the Kaplan-Meier method.

ABC = conditions: monotherapy 100 mg bd, older formulation; 29 patients with ABC; cited from earlier work
clinical = conditions: human, in vivo, 75 mg
[3] = ABC-04 phase Ib trial: dose limiting toxicity, adverse events, compliance; type: in vivo, patients
Procedure: Four dose levels were included in the protocol for potential evaluation; 75 mg bd, 50 mg bd, 75 mg once daily (od) and 50 mg od. The first dose level evaluated was 75 mg bd. Patients were recruited in cohorts of three. The number of patients experiencing a DLT during the first cycle of treatment in each cohort was used to decide the dose level at which to recruit the next cohort. If no patients experienced a DLT, then that dose level was the recommended dose. If one patient experienced a DLT, the cohort was to be expanded to six patients. If > 2 patients experienced DLT, then subsequent patients were to be entered into the next lower dose level. […]
Patients were assessed prior to starting treatment and at regular intervals throughout treatment. […] All AEs occurring between the date of signing consent and 30 days after the last dose of any trial treatment were recorded. […] Disease status was assessed by computed tomography (CT) scan, with or without a liver magnetic resonance (MR) scan, prior to registration, after cycles 4 and 8 and then subsequently every 12 weeks until disease progression. Patients with measurable disease at baseline were assessed for objective response according to RECIST v1.1 [10]. For patients with non-measurable disease, objective response was not assessed and progressive disease was documented by the appearance of new lesions or by symptomatic deterioration. […]

[4] = RECIST v1.1, listed as selumetinib

O=C(NOCCO)c1cc2nc[nH]c2c(F)c1Nc1ccc(Br)cc1Cl [N-desmethyl selumetinib]
AUC(0-t) ([1]; human): 347.26 ng·h/mL
Cmax ([1]; human): 77.16 ng/mL
Tmax ([1]; human): 2.00 h
decrease of AUC(0-t) in the presence of CisGem ([1]; human): 40%
decrease of AUC(0-∞) in the presence of CisGem ([1]; human): 40%
decrease of Cmax in the presence of CisGem ([1]; human): 40%
AUC(0-∞) [1]: 452.88 ng·h/mL

Cn1cnc2c(F)c(Nc3ccc(Br)cc3Cl)c(C(=O)NOCCO)cc21 [Selumetinib]
Median time from documented best objective response until progression or death [2]: 5.9 months
median time from documented best objective response until progression or death, best response SD [2]: 3.1 months
median PFS ([2]; IQR 5.2 to 13.7): 6.4 months
PFS rate at 6 months ([2]; Kaplan-Meier): 67%
PFS rate at 12 months ([2]; Kaplan-Meier): 33%
Best objective response: Complete response ([2]; RECIST v1.1): 1 N
Best objective response: Partial response ([2]; RECIST v1.1): 1 N
Best objective response: Stable disease ([2]; RECIST v1.1): 6 N
Best objective response: Partial response [2, 4]: 3 N
Best objective response: Stable disease [2, 4]: 5 N
Best objective response: Not evaluable ([2]; RECIST v1.1, total 13): 5 N
patients who had died ([2]; at the time of the final analysis): 7 patients
response rate (ABC): 12%
AUC(0-inf) (clinical): 5650 ng·h/mL
Tmax (clinical): 1.55 h
deaths considered related to protocol treatment ([3]; 75 mg bd + CisGem): None
recommended dose of selumetinib when combined with CisGem ([3]; dose de-escalation scheme, patients with ABC): 75 mg bd
Cmax ([1]; human): 1331.33 ng/mL
